Test results as given in ChEMBL document CHEMBL3621141, “Discovery of indole-based tetraarylimidazoles as potent inhibitors of urease with low antilipoxygenase activity” (Eur J Med Chem, 2015).

How the values were obtained:
[1] = Inhibition of soybean LOX using linoleic acid as substrate preincubated for 10 mins followed by substrate addition measured after 6 mins by spectrophotometric analysis; set-up: species or system Glycine max
Glycine max = test: Inhibition of soybean LOX using linoleic acid as substrate at 0.5 mM preincubated for 10 mins followed by substrate addition measured after 6 mins by spectrophotometric analysis
Urease = Urease (Canavalia ensiformis, UniProt P07374); test: Inhibition of jack beans urease assessed as hydrolysis of urea into ammonia preincubated for 10 mins followed by urea addition measured after 10 mins by Berthelot assay
[2] = biological target: Urease (Canavalia ensiformis) (UniProt P07374); test: Inhibition of jack beans urease assessed as hydrolysis of urea into ammonia at 0.5 mM preincubated for 10 mins followed by urea addition measured after 10 mins by Berthelot assay
Chain of Urease (Canavalia ensiformis) (P07374 whole entry, looked up): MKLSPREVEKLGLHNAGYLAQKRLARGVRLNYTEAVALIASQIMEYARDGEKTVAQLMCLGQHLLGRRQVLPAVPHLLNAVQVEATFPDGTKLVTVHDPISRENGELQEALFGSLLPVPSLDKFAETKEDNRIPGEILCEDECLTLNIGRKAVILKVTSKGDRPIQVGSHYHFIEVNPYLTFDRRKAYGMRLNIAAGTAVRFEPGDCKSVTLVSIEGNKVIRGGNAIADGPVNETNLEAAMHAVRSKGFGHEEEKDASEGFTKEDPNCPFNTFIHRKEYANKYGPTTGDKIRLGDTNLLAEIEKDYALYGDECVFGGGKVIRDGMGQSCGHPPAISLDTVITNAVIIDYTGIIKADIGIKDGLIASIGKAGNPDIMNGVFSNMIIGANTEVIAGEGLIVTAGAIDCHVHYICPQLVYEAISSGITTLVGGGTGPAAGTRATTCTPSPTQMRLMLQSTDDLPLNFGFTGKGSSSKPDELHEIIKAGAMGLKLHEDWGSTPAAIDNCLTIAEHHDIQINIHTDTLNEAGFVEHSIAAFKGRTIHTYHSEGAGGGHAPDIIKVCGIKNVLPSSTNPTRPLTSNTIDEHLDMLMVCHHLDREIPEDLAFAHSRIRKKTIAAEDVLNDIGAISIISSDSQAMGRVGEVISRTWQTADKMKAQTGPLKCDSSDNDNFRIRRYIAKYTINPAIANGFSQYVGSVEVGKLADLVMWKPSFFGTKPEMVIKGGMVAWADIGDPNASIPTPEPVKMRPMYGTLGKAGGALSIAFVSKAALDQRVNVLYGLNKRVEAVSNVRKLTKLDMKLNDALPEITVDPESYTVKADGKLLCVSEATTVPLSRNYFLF

Chain of Urease (P07374 whole entry): as the sequence (P07374 whole entry, looked up) above

Row | SMILES | IC50 [1] | inhibition (Glycine max) | IC50 (Urease) | inhibition [2]
1 | Brc1ccc2[nH]c(-c3ccccc3)c(-c3nc(-c4ccccc4)c(-c4ccccc4)n3-c3ccccc3)c2c1 | 134 µM | 97.2% | – | –
2 | O=c1cc(-c2ccccc2)oc2cc(O)c(O)c(O)c12 [BAICALEIN] | 22.4 µM | 93.7% | – | –
3 | Clc1ccc(-n2c(-c3c(-c4ccccc4)[nH]c4ccc(Br)cc34)nc(-c3ccccc3)c2-c2ccccc2)cc1 | 101 µM | 83.2% | 4.66 µM | 87.8%
4 | Fc1ccc(-n2c(-c3c(-c4ccc(C(F)(F)F)cc4)[nH]c4ccccc34)nc(-c3ccccc3)c2-c2ccccc2)cc1 | 106 µM | 80.2% | 0.16 µM | 85.2%
5 | Fc1ccc(-n2c(-c3c(-c4ccc(Cl)cc4)[nH]c4ccccc34)nc(-c3ccccc3)c2-c2ccccc2)cc1 | 89 µM | 84.5% | 0.44 µM | 85.6%
6 | Brc1ccc(-c2[nH]c3ccccc3c2-c2nc(-c3ccccc3)c(-c3ccccc3)n2-c2ccccc2)cc1 | 197 µM | 59.3% | 4.81 µM | 89.4%
7 | Brc1ccc(-c2[nH]c3ccccc3c2-c2nc(-c3ccccc3)c(-c3ccccc3)n2-c2ccc(Br)cc2)cc1 | 173 µM | 61.1% | 11.3 µM | 87.8%
8 | Clc1ccc(-c2[nH]c3ccccc3c2-c2nc(-c3ccccc3)c(-c3ccccc3)n2-c2ccccc2)cc1 | 276 µM | 58.3% | 0.37 µM | 80.3%
9 | COc1ccc(-n2c(-c3c(-c4ccc(Br)cc4)[nH]c4ccccc34)nc(-c3ccccc3)c2-c2ccccc2)cc1 | 206 µM | 61.7% | 29.1 µM | 85.2%
10 | Cc1ccc(-n2c(-c3c(-c4ccccc4)[nH]c4ccc(Br)cc34)nc(-c3ccccc3)c2-c2ccccc2)cc1 | 143 µM | 81.4% | – | –
11 | COc1ccc(-n2c(-c3c(-c4ccccc4)[nH]c4ccc(Br)cc34)nc(-c3ccccc3)c2-c2ccccc2)cc1 | 265 µM | 57.5% | 4.62 µM | 88.7%
12 | FC(F)(F)c1ccc(-c2[nH]c3ccccc3c2-c2nc(-c3ccccc3)c(-c3ccccc3)n2-c2ccccc2)cc1 | 117 µM | 86.2% | – | –
13 | Fc1ccc(-n2c(-c3c(-c4ccc(Br)cc4)[nH]c4ccccc34)nc(-c3ccccc3)c2-c2ccccc2)cc1 | 162 µM | 87.8% | 12.1 µM | 86.7%
14 | FC(F)(F)c1ccc(-c2[nH]c3ccccc3c2-c2nc(-c3ccccc3)c(-c3ccccc3)n2-c2ccc(Cl)cc2)cc1 | 215 µM | 62.1% | 4.75 µM | 70.3%
15 | Cc1ccc(-n2c(-c3c(-c4ccc(C(F)(F)F)cc4)[nH]c4ccccc34)nc(-c3ccccc3)c2-c2ccccc2)cc1 | 83 µM | 90.3% | 0.12 µM | 79.7%
16 | Brc1ccc(-n2c(-c3c(-c4ccccc4)[nH]c4ccc(Br)cc34)nc(-c3ccccc3)c2-c2ccccc2)cc1 | 178 µM | 78.5% | 0.15 µM | 93.2%
